Experimental data as given in article PMC9358475 (The Journal of Biological Chemistry, 2022).

Columns and labels:
ERK1/2 [1] = experiment: ERK-KTR live-cell ERK activity reporter in HCT-116, […] h; format: cell-based
ERK1/2 [2] = experiment: ERK-KTR live-cell ERK activity reporter in SH-SY5Y, […] h; format: cell-based

IC50 (ERK1/2 [1]) | IC50 (ERK1/2 [2]) | Structure (SMILES)
32 nM | – | CC(C)Nc1cc(-c2c[nH]c(C(=O)N[C@H](CO)c3cccc(Cl)c3)c2)c(Cl)cn1 [Ulix, ulixertinib]
– | 75 nM | O=C(Nc1ccc2[nH]nc(-c3ccncc3)c2c1)[C@@H]1CCN(CC(=O)N2CCN(c3ccc(-c4ncccn4)cc3)CC2)C1 [SCH, SCH772984]
